# Test results taken from patent US20070056049A1, “p53 and VEGF regulate tumor growth of NOS2 expressing cancer cells” (The Govt. of the USA as represented by the Secretary of the …, priority 1998, published 2007).
# “Also recorded” adds a separate entry of the source.
# Assays:
# [1] = tested on: VEGF secretion of NOS2-expressing Calu-6 cells; test: VEGF secretion into culture medium of NOS2-expressing Calu-6 cell clones (immunoprecipitation, western blot); format: cell-based, human; conditions: 2 mM L-NMA, 48 hr, 3×10^6 cells in 4 ml of medium
# Description: FIG. 7a-b: VEGF protein concentrations are higher (4.3 and 7.1-fold) in the culture medium of NOS2-expressing Calu-6 cells clones than in the culture medium of vector controls (A) and correlate with increased VEGF mRNA expression (B). […] 3×10^6 cells were cultured in 4 ml of medium for 48 hr±2 mM L-NMA. VEGF was immunoprecipitated out of 1 ml of culture medium. The 4.4 kb VEGF mRNA was detected by northern blotting was a 522 bp ^32P-labeled cDNA (exon 1-7), and the 7.5 kb polycistronic mRNA encoding NOS2 with the full-length human NOS2 cDNA (Geller et al., Proc. Natl. Acad. Sci. U.S.A. 90:3491-3495 (1993); Tzeng et al., Proc. Nat'l Acad. Sci USA 92:11771-11775 (1995)).
# NOS2 and VEGF western blot analysis: Cell lysates for western blotting were prepared by solubilization of cell pellets in RIPA butter. VEGF protein concentrations were determined as follows. Five μg of rabbit polyclonal anti-VEGF antibody (Santa Cruz Biotechnology) were added to either 1 mg of cellular protein extract or 1 ml of cell culture medium, incubated for 1 hr at 8-10° C., and then mixed with protein A-sepharose (10 mg) for 1 hr. […] After transfer to an Immunobilon-P membrane (Millipore), NOS2 and VEGF protein were detected with either a polyclonal anti-NOS2 antibody (Merck), 1:40,000 diluted, or a polyclonal anti-VEGF, 1:1000 diluted, as described (Ambs et al., Cancer Res. 58:334-341 (1998)).
# [2] = tested on: NOS2-expressing LoVo cells; test: Tumor xenoplantation of NOS2-expressing LoVo cells in athymic nude mice; format: in vivo; conditions: wild-type p53 LoVo cells, slow-growing tumors
# Excerpt: (§1) FIG. 2a-d: Tumor probability of NOS2-expressing human carcinoma cells lines is dependent on the p53 status. 3×10^6 cells of NOS2-expressing Calu-6 and LoVo carcinoma cells, and the vector controls (BaglacZ), were inoculated into 10 athymic nude mice, respectively. NOS2-expressing LoVo cells, which have two wild-type p53 alleles, grow slower (A) and produce smaller tumors (C) than vector controls (BaglacZ). In contrast, NOS2-expressing Calu-6 cells, which lack expression of functional p53, grow faster (B) and produce larger tumors (D) than the vector controls.
# (§2) A. Methods Tumor xenoplantation: Suspensions of 3×10^5 to 5×10^6 cells in a volume of 0.2 ml were injected at a single subcutaneous site into athymic nude mice previously irradiated with 350 rads. Either 10 or 20 animals were injected per experiment. A nodule was scored as a tumor when it measured 125 mm^3 or more by its largest two dimensions.
# (§3) Statistical Analysis: The Kaplan-Meier survival analysis was used to calculate the statistical significance of tumor probabilities in different treatment groups. Other comparisons were carried out by the two-tailed Student's t-test. Relationships are considered statistically significant when p<0.05.
# [3] = tested on: NOS2-expressing HT-29 colon carcinoma cells; test: Tumor xenoplantation of NOS2-expressing HT-29 colon carcinoma cells in athymic nude mice; format: in vivo; conditions: 1% AG in the drinking water; mutant p53 HT-29 cells; Kaplan-Meier analysis p=0.002
# Description: 3×10^5 cells of NOS2 (Retro-HNOS) and β-galactosidase (BaglacZ) expressing HT-29 cells were inoculated into 40 athymic nude mice, respectively. Half of the animals in both groups received 1% AG in the drinking water. […] This effect is abolished (p=0.002) through treatment with 1% AG.
# as §2, §3
# [4] = tested on: NOS2-expressing Calu-6 cells; test: Tumor xenoplantation of NOS2-expressing Calu-6 cells in athymic nude mice; format: in vivo; conditions: 1% AG; p53 null Calu-6 cells, subcutaneous tumors; p<0.05, two-tailed Student's t-test
# Excerpt: as §1, §2, §3
SMILES,VEGF secretion into the culture medium [1],tumor growth of NOS2-expressing LoVo cells [2],tumor probability / tumor growth of NOS2-expressing HT-29 cells [3],tumor growth of NOS2-expressing Calu-6 cells [4]
"CNC(=N)NCCC[C@H](N)C(=O)O [L-NMA, NG-monomethyl-L-arginine]",reduced the VEGF secretion; also recorded: decreases VEGF secretion,–,–,–
N=C(N)NN [aminoguanidine],–,lack of an aminoguanidine effect,significantly reduced the tumor growth; also recorded: reverses the growth stimulatory effect of NOS2,significantly reduced the tumor growth; also recorded: inhibited; also recorded: suppressed the tumor growth
